Results as given in US20100137449A1, “SUBSTITUTED 1,3-CYCLOPENTADIONE MULTI-TARGET PROTEIN KINASE MODULATORS OF CANCER, ANGIOGENESIS AND THE INFLAMMATORY PATHWAYS ASSOCIATED THEREWITH” (METAPROTEOMICS, LLC, priority 2007, published 2010).

Columns and labels:
Assay in all cases: KinaseProfiler Assay
[1] = biological target: T1, ALK4(h) (Homo sapiens, UniProt P36896)
T1 sequence (P36896 24-505): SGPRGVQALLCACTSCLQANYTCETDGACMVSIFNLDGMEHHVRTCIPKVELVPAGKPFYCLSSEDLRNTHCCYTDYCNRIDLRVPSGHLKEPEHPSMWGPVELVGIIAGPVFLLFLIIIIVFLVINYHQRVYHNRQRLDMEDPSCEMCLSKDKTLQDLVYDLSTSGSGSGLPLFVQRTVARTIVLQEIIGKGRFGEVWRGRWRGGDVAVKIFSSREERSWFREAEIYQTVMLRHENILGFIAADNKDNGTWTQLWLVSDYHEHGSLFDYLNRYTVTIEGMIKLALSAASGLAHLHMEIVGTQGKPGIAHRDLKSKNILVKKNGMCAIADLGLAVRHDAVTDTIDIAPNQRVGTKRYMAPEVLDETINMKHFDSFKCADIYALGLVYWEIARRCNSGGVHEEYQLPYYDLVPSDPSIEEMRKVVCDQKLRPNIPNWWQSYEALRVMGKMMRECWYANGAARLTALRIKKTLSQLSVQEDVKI

[2] = biological target: PDGFRα(V561D)(h) (Homo sapiens, UniProt P16234, V561D)
Sequence of PDGFRα(V561D)(h) (P16234 24-1089 V561D): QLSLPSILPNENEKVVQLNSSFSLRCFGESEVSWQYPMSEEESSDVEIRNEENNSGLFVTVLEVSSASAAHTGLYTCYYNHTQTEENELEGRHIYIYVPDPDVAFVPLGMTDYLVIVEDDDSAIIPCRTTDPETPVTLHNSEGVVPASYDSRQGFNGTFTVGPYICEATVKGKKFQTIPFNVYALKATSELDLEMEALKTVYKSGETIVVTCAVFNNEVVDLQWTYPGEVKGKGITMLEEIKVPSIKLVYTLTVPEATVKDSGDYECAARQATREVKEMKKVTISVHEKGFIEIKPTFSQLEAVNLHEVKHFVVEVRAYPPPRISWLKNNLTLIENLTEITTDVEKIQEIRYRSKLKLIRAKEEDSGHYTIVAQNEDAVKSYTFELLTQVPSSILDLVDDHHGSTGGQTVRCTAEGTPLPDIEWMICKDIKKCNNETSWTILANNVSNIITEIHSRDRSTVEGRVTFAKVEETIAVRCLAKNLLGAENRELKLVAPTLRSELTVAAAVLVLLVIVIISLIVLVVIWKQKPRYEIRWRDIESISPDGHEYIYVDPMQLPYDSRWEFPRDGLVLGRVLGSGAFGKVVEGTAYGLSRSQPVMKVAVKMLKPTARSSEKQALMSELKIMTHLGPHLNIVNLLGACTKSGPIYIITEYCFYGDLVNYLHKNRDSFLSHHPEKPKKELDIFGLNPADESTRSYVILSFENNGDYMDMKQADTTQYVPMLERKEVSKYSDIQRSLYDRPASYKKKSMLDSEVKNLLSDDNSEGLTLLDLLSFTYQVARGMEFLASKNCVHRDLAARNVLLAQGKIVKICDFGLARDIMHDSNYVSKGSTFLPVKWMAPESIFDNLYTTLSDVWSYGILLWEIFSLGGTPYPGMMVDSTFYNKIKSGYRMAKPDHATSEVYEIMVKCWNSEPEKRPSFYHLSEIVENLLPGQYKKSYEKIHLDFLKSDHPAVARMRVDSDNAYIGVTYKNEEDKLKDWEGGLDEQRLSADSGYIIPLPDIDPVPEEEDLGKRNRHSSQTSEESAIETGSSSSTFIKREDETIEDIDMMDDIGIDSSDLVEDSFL

[3] = biological target: CaMKIIδ(h) (Homo sapiens, UniProt Q13557)
Sequence of CaMKIIδ(h) (Q13557 whole entry): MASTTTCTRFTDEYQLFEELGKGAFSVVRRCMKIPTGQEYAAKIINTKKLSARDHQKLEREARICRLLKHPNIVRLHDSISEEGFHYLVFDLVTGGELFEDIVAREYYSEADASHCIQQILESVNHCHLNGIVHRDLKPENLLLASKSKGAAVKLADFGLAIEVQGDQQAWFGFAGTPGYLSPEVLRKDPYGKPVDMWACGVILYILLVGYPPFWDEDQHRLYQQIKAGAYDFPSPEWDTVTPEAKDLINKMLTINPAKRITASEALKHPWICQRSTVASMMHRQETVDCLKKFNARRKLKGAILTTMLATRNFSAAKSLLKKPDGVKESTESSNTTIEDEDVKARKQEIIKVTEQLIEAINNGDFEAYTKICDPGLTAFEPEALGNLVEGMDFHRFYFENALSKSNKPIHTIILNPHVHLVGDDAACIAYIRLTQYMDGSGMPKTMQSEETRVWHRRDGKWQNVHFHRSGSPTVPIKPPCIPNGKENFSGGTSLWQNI

[4] = biological target: Flt1(h) (Homo sapiens, UniProt P17948)
[5] = biological target: CDK9/cyclin T1(h) (Homo sapiens, UniProt P50750)
Sequence of CDK9/cyclin T1(h) (P50750 whole entry): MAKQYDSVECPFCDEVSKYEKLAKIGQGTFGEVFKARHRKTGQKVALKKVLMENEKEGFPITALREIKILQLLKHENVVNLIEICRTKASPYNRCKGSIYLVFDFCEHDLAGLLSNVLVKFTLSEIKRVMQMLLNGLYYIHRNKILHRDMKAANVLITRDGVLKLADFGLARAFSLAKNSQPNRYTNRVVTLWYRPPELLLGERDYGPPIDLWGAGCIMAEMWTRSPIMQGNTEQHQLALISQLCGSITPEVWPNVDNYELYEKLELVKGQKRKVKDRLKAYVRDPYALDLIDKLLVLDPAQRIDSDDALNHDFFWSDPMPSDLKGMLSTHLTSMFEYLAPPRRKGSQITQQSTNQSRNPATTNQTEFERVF
Sequence of CDK9/cyclin T1(h) (O60563 whole entry partner): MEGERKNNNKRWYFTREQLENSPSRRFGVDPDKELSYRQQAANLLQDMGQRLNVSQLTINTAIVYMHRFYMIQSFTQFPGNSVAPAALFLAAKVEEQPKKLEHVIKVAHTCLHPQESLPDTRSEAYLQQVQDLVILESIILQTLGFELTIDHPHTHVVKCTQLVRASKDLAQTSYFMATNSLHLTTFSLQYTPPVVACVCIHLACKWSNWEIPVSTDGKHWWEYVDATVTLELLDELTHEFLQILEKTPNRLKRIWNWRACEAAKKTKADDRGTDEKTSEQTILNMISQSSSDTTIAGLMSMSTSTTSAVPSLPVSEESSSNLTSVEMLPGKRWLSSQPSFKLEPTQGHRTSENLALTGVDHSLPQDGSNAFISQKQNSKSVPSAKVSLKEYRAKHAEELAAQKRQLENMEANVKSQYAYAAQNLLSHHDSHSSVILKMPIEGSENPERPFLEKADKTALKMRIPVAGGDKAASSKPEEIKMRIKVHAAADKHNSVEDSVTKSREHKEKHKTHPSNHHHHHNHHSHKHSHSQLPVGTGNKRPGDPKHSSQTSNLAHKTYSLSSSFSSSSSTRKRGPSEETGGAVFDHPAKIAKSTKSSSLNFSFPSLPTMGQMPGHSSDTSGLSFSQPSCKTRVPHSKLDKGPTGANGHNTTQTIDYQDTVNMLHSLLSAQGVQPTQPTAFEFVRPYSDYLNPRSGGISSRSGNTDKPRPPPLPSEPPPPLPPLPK

[6] = biological target: MELK(h) (Homo sapiens, UniProt Q14680)
[7] = biological target: CaMKIIγ(h) (Homo sapiens, UniProt Q13555)
Sequence of CaMKIIγ(h) (Q13555 whole entry): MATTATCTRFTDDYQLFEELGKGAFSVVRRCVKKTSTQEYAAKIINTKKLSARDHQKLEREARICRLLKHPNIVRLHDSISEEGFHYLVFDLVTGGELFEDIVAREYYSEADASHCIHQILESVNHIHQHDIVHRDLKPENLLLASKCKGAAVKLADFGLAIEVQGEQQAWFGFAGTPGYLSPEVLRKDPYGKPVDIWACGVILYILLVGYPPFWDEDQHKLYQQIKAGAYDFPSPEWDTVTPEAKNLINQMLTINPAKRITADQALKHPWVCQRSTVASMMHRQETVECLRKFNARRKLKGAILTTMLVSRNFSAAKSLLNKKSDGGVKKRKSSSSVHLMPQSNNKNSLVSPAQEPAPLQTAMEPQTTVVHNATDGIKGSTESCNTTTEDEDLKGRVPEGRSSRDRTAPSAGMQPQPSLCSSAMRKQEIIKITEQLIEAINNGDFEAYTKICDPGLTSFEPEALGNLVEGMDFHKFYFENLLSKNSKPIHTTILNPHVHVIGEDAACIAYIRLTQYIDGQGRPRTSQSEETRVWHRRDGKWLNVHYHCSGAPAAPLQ

[8] = biological target: PKBγ(h) (Homo sapiens, UniProt Q9Y243)
[9] = biological target: HIPK2(h) (Homo sapiens, UniProt Q9H2X6)
[10] = biological target: Ret(V804L)(h) (Homo sapiens, UniProt P07949, V804L)
Sequence of Ret(V804L)(h) (P07949 29-1114 V804L): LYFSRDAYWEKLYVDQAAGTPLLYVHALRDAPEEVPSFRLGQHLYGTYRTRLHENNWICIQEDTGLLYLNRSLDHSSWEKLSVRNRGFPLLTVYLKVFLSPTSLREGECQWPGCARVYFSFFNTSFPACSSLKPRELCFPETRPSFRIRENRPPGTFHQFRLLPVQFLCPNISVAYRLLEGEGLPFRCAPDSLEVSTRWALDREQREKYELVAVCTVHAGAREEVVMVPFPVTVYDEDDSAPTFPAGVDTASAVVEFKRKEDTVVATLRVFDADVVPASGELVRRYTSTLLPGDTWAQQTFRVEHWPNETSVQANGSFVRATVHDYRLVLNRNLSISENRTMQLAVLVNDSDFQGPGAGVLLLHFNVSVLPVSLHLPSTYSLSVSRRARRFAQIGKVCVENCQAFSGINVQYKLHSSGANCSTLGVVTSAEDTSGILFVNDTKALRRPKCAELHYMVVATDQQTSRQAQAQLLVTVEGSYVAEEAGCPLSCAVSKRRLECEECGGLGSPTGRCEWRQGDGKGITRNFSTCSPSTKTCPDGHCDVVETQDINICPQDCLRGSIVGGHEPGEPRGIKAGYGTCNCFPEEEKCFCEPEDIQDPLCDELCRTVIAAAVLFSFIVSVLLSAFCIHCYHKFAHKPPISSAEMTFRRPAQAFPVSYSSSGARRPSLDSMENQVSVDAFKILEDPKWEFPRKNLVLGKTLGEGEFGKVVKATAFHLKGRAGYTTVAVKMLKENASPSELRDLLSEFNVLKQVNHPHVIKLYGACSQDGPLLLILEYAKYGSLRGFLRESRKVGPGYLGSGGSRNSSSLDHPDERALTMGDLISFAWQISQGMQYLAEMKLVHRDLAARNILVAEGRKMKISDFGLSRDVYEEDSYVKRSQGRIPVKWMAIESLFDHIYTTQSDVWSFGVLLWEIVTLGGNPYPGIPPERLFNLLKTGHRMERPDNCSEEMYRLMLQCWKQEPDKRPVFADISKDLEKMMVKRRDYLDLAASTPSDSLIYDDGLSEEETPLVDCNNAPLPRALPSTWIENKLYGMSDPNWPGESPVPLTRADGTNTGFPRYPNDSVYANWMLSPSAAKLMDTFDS

[11] = biological target: T2, Itk(h) (Homo sapiens, UniProt Q08881)
T2 sequence (Q08881 1-620): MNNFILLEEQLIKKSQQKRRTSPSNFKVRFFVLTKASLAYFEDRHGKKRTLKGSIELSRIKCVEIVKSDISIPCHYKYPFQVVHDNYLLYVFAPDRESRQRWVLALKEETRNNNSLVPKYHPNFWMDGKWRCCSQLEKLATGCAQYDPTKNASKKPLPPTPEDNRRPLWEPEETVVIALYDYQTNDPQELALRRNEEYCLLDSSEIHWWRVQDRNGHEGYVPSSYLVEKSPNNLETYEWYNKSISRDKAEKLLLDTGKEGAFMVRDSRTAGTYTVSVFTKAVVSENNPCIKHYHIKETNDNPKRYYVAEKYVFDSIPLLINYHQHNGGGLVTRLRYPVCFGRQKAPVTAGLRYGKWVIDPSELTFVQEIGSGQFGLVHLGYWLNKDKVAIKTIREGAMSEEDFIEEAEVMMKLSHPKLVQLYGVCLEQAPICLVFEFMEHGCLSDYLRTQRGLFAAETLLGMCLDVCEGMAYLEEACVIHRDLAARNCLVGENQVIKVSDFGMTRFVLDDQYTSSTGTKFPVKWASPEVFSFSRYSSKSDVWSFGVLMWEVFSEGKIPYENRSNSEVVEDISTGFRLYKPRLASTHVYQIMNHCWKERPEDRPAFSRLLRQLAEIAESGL

[12] = biological target: Fes(h) (Homo sapiens, UniProt P07332)
[13] = biological target: CaMKI(h) (Homo sapiens, UniProt Q14012)
Sequence of CaMKI(h) (Q14012 whole entry): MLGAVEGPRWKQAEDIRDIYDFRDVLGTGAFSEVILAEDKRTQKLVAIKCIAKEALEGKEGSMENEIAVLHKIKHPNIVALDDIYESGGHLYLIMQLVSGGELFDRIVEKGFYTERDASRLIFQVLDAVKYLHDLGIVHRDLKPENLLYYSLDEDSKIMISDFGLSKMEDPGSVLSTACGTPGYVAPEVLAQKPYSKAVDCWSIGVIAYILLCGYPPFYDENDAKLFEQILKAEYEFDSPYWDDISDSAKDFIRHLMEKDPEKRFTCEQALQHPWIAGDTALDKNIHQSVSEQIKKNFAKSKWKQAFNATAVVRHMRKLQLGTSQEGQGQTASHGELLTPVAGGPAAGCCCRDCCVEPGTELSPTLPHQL

## CC(C)CCC(=O)[C@]1(O)C(O)=C(C(=O)C(C)C)C(=O)[C@H]1CCC(C)C [TH2, tetrahydroiso-cohumulone]
[1]; 1 μg/ml
  kinase inhibition: 109% of control
[1]; 5 μg/ml
  kinase inhibition: 104% of control
[1]; 25 μg/ml
  kinase inhibition: 97% of control
[1]; 50 μg/ml
  kinase inhibition: 83% of control
[1]; 100 μg/ml
  kinase inhibition: 63% of control
[2]; 1 μg/ml
  kinase inhibition: 115% of control
[2]; 5 μg/ml
  kinase inhibition: 126% of control
[2]; 25 μg/ml
  kinase inhibition: 116% of control
[2]; 50 μg/ml
  kinase inhibition: 111% of control
[2]; 100 μg/ml
  kinase inhibition: 103% of control
[3]; 1 μg/ml
  kinase inhibition: 99% of control
[3]; 5 μg/ml
  kinase inhibition: 99% of control
[3]; 25 μg/ml
  kinase inhibition: 100% of control
[3]; 50 μg/ml
  kinase inhibition: 91% of control
[3]; 100 μg/ml
  kinase inhibition: 87% of control
[4]; 1 μg/ml
  kinase inhibition: 102% of control
[4]; 5 μg/ml
  kinase inhibition: 97% of control
[4]; 25 μg/ml
  kinase inhibition: 103% of control
[4]; 50 μg/ml
  kinase inhibition: 102% of control
[4]; 100 μg/ml
  kinase inhibition: 98% of control
[5]; 1 μg/ml
  kinase inhibition: 99% of control
[5]; 5 μg/ml
  kinase inhibition: 102% of control
[5]; 25 μg/ml
  kinase inhibition: 78% of control
[5]; 50 μg/ml
  kinase inhibition: 63% of control
[5]; 100 μg/ml
  kinase inhibition: 49% of control
[6]; 1 μg/ml
  kinase inhibition: 116% of control
[6]; 5 μg/ml
  kinase inhibition: 104% of control
[6]; 25 μg/ml
  kinase inhibition: 102% of control
[6]; 50 μg/ml
  kinase inhibition: 98% of control
[6]; 100 μg/ml
  kinase inhibition: 83% of control
[7]; 1 μg/ml
  kinase inhibition: 109% of control
[7]; 5 μg/ml
  kinase inhibition: 109% of control
[7]; 25 μg/ml
  kinase inhibition: 131% of control
[7]; 50 μg/ml
  kinase inhibition: 108% of control
[7]; 100 μg/ml
  kinase inhibition: 101% of control
[8]; 1 μg/ml
  kinase inhibition: 112% of control
[8]; 5 μg/ml
  kinase inhibition: 110% of control
[8]; 25 μg/ml
  kinase inhibition: 107% of control
[8]; 50 μg/ml
  kinase inhibition: 97% of control
[8]; 100 μg/ml
  kinase inhibition: 83% of control
[9]; 1 μg/ml
  kinase inhibition: 120% of control
[9]; 5 μg/ml
  kinase inhibition: 111% of control
[9]; 25 μg/ml
  kinase inhibition: 115% of control
[9]; 50 μg/ml
  kinase inhibition: 110% of control
[9]; 100 μg/ml
  kinase inhibition: 97% of control
[10]; 1 μg/ml
  kinase inhibition: 110% of control
[10]; 5 μg/ml
  kinase inhibition: 103% of control
[10]; 25 μg/ml
  kinase inhibition: 91% of control
[10]; 50 μg/ml
  kinase inhibition: 81% of control
[10]; 100 μg/ml
  kinase inhibition: 60% of control
[11]; 1 μg/ml
  kinase inhibition: 101% of control
[11]; 5 μg/ml
  kinase inhibition: 103% of control
[11]; 25 μg/ml
  kinase inhibition: 87% of control
[11]; 50 μg/ml
  kinase inhibition: 82% of control
[11]; 100 μg/ml
  kinase inhibition: 87% of control
[12]; 1 μg/ml
  kinase inhibition: 140% of control
[12]; 5 μg/ml
  kinase inhibition: 120% of control
[12]; 25 μg/ml
  kinase inhibition: 105% of control
[12]; 50 μg/ml
  kinase inhibition: 99% of control
[12]; 100 μg/ml
  kinase inhibition: 86% of control
[13]; 1 μg/ml
  kinase inhibition: 96% of control
[13]; 5 μg/ml
  kinase inhibition: 93% of control
[13]; 25 μg/ml
  kinase inhibition: 73% of control
[13]; 50 μg/ml
  kinase inhibition: 48% of control
[13]; 100 μg/ml
  kinase inhibition: 48% of control
